Assay results published in patent US8168681B2, “Amidoacetonitrile compounds and pesticidal composition thereof” (Novartis AG, priority 2008, dated 2012).

Experiments:
Haemonchus contortus [1] = experiment: In-vivo test on Mongolian gerbils using peroral application; set-up: species or system Mongolian gerbils (Meriones unguiculatus); conditions: repeated test 2a, gerbil, 0.32 mg/kg
Method: (§1) Six to eight week old Mongolian gerbils are infected through a stomach tube with ca. 2000 third instar larvae each of T. colubriformis and H. contortus. 6 days after infection, the gerbils are treated by peroral application with the test compounds, dissolved in a mixture of 2 parts DMSO and 1 part polyethylene glycol (PEG 400). On day 9 (3 days after treatment), when most of the H. contortus that are still present are late 4th instar larvae and most of the T. colubriformis are immature adults, the gerbils are killed in order to count the worms. The efficacy is calculated as the % reduction of the number of worms in each gerbil, compared with the geometric average of number of worms from 6 infected and untreated gerbils.
(§2) The above described in-vivo test on Trichostrongylus colubriformis (Tc) and Haemonchus contortus ([…]) was repeated with compounds 1.2, 1.3 and 1.5 from Table 1 and with the compounds of Examples 1a and 3a on pages 22-25 of WO 2008/96231.

[2] = system: Trichostrongylus colubriformis; experiment: as above; set-up: species or system Mongolian gerbils (Meriones unguiculatus); conditions: repeated test 2a, gerbil, 0.32 mg/kg
Method: as §1, §2

Haemonchus contortus [3] = experiment: Activity in vitro (egg hatch / larval development, 96-well agar plate); conditions: 0.1 ppm; 6 days at 25° C.; reduced egg hatch, reduced development of L3, or paralysis & death of larvae
Method: (§3) Freshly harvested and cleaned nematode eggs are used to seed a suitably formatted 96-well plate containing the test substances to be evaluated for antiparasitic activity. Each compound is tested by serial dilution in order to determine its MED. The test compounds are embedded in an agar-based nutritive medium allowing the full development of eggs through to 3rd instar larvae. The plates are incubated for 6 days at 25° C. and 60% relative humidity (RH). Egg-hatching and ensuing larval development are recorded to identify a possible nematodicidal activity. Efficacy is expressed in percent reduced egg hatch, reduced development of L3, or paralysis & death of larvae of all stages.

[4] = system: Trichostrongylus colubriformis; experiment: as above; conditions: 0.1 ppm; 6 days at 25° C.; reduced egg hatch, reduced development of L3, or paralysis & death of larvae
Method: as §3

SMILES: CC(C#N)(COc1cc(C#N)ccc1Oc1ccc(OC(F)(F)F)cc1Cl)NC(=O)c1ccc(S(F)(F)(F)(F)F)cc1 (stereo not drawn) [Compound 1.5, N-[1-cyano-1-methyl-2-(5-cyano-2-{2-chloro-4-trifluoromethoxy-phenoxy}-phenoxy)-ethyl]-4-pentafluorothio-benzamide]
- Efficacy against Hc [%] (Haemonchus contortus [1]): 100%
- Efficacy against Tc [%] [2]: 99%

SMILES: CC(C#N)(COc1cc(C#N)ccc1Oc1ccc(F)cc1Br)NC(=O)c1ccc(S(F)(F)(F)(F)F)cc1 (stereo not drawn) [Compound 1.3, N-[1-cyano-1-methyl-2-(5-cyano-2-{2-bromo-4-fluorophenoxy}-phenoxy)-ethyl]-4-pentafluorothio-benzamide]
- Efficacy against Hc [%] (Haemonchus contortus [1]): 100%
- Efficacy against Tc [%] [2]: 98%

SMILES: CC(C#N)(COc1ccc(C#N)cc1C(F)(F)F)NC(=O)c1ccc(S(F)(F)(F)(F)F)cc1 (stereo not drawn) [reference compound]
- Efficacy against Hc [%] (Haemonchus contortus [1]): 40%
- Efficacy against Tc [%] [2]: 23%

SMILES: CC(C#N)(COc1cc(C#N)ccc1Oc1ccc(Cl)cc1Cl)NC(=O)c1ccc(S(F)(F)(F)(F)F)cc1 (stereo not drawn) [Compound 1.2, N-[1-cyano-1-methyl-2-(5-cyano-2-{2,4-dichlorophenoxy}-phenoxy)-ethyl]-4-pentafluorothio-benzamide]
- Efficacy against Hc [%] (Haemonchus contortus [1]): 98%
- Efficacy against Tc [%] [2]: 100%

SMILES: CC(C#N)(COc1cc(C#N)ccc1C(F)(F)F)NC(=O)c1ccc(S(F)(F)(F)(F)F)cc1 (stereo not drawn) [reference compound]
- Efficacy against Hc [%] (Haemonchus contortus [1]): 85%
- Efficacy against Tc [%] [2]: 33%

SMILES: CC(C#N)(COc1cc(Cl)ccc1Oc1ccc(Cl)cc1Cl)NC(=O)c1ccc(S(C)(=O)=O)cc1 (stereo not drawn) [Compound 1.10, N-[1-cyano-1-methyl-2-(5-chloro-2-{2,4-dichlorophenoxy}-phenoxy)-ethyl]-4-methylsulfonyl-benzamide]
- efficacy against Haemonchus contortus (Haemonchus contortus [3]): more than 90%
- efficacy against Trichostrongylus colubriformis [4]: more than 90%
